In patent publication US8129398B2 (priority 2008, dated 2012):

What follows are compounds tested against T1, HIV-integrase (Human immunodeficiency virus type 1 group M subtype B, UniProt P12497) (assay: HIV-Integrase Inhibition Activity (SPA bead integration assay with P33 labeled target DNA)). Conditions: recombinant integrase, class symbols; read-out: in vitro activity.
T1 construct: Recombinant integrase (0.26 ng) was incubated with the beads
Format: biochemical
Method in brief: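 Biotinylated substrate DNA on streptavidin SPA beads loaded with recombinant integrase (90 min, 37° C), washed, then inhibitor plus 0.1 fmol P33-labeled target DNA added. Reaction stopped with 10 mM EDTA; integration measured as CPM by scintillation, giving IC50 ranks.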

| Structure (SMILES) | IC50 [nM] |
| --- | --- |
| Cc1cc(C(=O)NC23CCC(CC2)Cn2c3nc(C(=O)NCc3ccc(F)cc3)c(O)c2=O)nn1C(C)(C)C [Example 240] | < 10 |
| Cc1cc(C(=O)NC23CCC(CC2)Cn2c3nc(C(=O)NCc3ccc(F)cc3)c(O)c2=O)n(C)n1 [Example 241, 7,10-Ethanopyrimido[1,2-a]azepine-2-carboxamide, 10-[[(1,3-dimethyl-1H-pyrazol-5-yl)carbonyl]amino]-N-[(4-fluorophenyl)methyl]-4,6,7,8,9,10-hexahydro-3-hydroxy-4-oxo-] | < 10 |
| Cc1c(C(=O)NC23CCC(CC2)Cn2c3nc(C(=O)NCc3ccc(F)cc3)c(O)c2=O)ncn1C [Example 242, 7,10-Ethanopyrimido[1,2-a]azepine-2-carboxamide, 10-[[(1,5-dimethyl-1H-imidazol-4-yl)carbonyl]amino]-N-[(4-fluorophenyl)methyl]-4,6,7,8,9,10-hexahydro-3-hydroxy-4-oxo-] | < 10 |
| Cc1ncn(C)c1C(=O)NC12CCC(CC1)Cn1c2nc(C(=O)NCc2ccc(F)cc2)c(O)c1=O [Example 243, 7,10-Ethanopyrimido[1,2-a]azepine-2-carboxamide, 10-[[(1,4-dimethyl-1H-imidazol-5-yl)carbonyl]amino]-N-[(4-fluorophenyl)methyl]-4,6,7,8,9,10-hexahydro-3-hydroxy-4-oxo-] | 10 to 100 |
| CN(C)C(=O)C(=O)NC12CCC(CC1)Cn1c2nc(C(=O)NCc2ccc3nccn3c2)c(O)c1=O [Example 244, Ethanediamide, N,N-dimethyl-N′-[6,7,8,9-tetrahydro-3-hydroxy-2-[[(imidazo[1,2-a]pyridin-6-ylmethyl)amino]carbonyl]-4-oxo-7,10-ethanopyrimido[1,2-a]azepin-10(4H)-yl]-] | 10 to 100 |
| Cn1ccc(C(=O)NC23CCC(CC2)Cn2c3nc(C(=O)NCc3ccc(F)cc3)c(O)c2=O)n1 [Example 245, 7,10-Ethanopyrimido[1,2-a]azepine-2-carboxamide, N-[(4-fluorophenyl)methyl]-4,6,7,8,9,10-hexahydro-3-hydroxy-10-[[(1-methyl-1H-pyrazol-3-yl)carbonyl]amino]-4-oxo-] | < 10 |
| Cn1cc(C(=O)NC23CCC(CC2)Cn2c3nc(C(=O)NCc3ccc(F)cc3)c(O)c2=O)cn1 [Example 246, 7,10-Ethanopyrimido[1,2-a]azepine-2-carboxamide, N-[(4-fluorophenyl)methyl]-4,6,7,8,9,10-hexahydro-3-hydroxy-10-[[(1-methyl-1H-pyrazol-4-yl)carbonyl]amino]-4-oxo-] | < 10 |
| Cn1nccc1C(=O)NC12CCC(CC1)Cn1c2nc(C(=O)NCc2ccc(F)cc2)c(O)c1=O [Example 247, 7,10-Ethanopyrimido[1,2-a]azepine-2-carboxamide, N-[(4-fluorophenyl)methyl]-4,6,7,8,9,10-hexahydro-3-hydroxy-10-[[(1-methyl-1H-pyrazol-5-yl)carbonyl]amino]-4-oxo-] | < 10 |
| Cn1cc(C(=O)NC23CCC(CC2)Cn2c3nc(C(=O)NCc3ccc(F)cc3)c(O)c2=O)nn1 [Example 248, 7,10-Ethanopyrimido[1,2-a]azepine-2-carboxamide, N-[(4-fluorophenyl)methyl]-4,6,7,8,9,10-hexahydro-3-hydroxy-10-[[(1-methyl-1H-1,2,3-triazol-4-yl)carbonyl]amino]-4-oxo-] | < 10 |
| Cn1nnnc1C(=O)NC12CCC(CC1)Cn1c2nc(C(=O)NCc2ccc(F)cc2)c(O)c1=O [Example 249, 7,10-Ethanopyrimido[1,2-a]azepine-2-carboxamide, N-[(4-fluorophenyl)methyl]-4,6,7,8,9,10-hexahydro-3-hydroxy-10-[[(1-methyl-1H-tetrazol-5-yl)carbonyl]amino]-4-oxo-] | < 10 |
| Cn1nnc(C(=O)NC23CCC(CC2)Cn2c3nc(C(=O)NCc3ccc(F)cc3)c(O)c2=O)n1 [Example 250, 7,10-Ethanopyrimido[1,2-a]azepine-2-carboxamide, N-[(4-fluorophenyl)methyl]-4,6,7,8,9,10-hexahydro-3-hydroxy-10-[[(2-methyl-2H-tetrazol-5-yl)carbonyl]amino]-4-oxo-] | < 10 |
| O=C(NCc1ccc(F)cc1)c1nc2n(c(=O)c1O)CC1CCC2(NC(=O)[C@H]2CCCN2)CC1 [Example 252, 7,10-Ethanopyrimido[1,2-a]azepine-2-carboxamide, N-[(4-fluorophenyl)methyl]-4,6,7,8,9,10-hexahydro-3-hydroxy-4-oxo-10-[[(2R)-2-pyrrolidinylcarbonyl]amino]-] | 10 to 100 |
| CN1CCC[C@@H]1C(=O)NC12CCC(CC1)Cn1c2nc(C(=O)NCc2ccc(F)cc2)c(O)c1=O [Example 257, 7,10-Ethanopyrimido[1,2-a]azepine-2-carboxamide, N-[(4-fluorophenyl)methyl]-4,6,7,8,9,10-hexahydro-3-hydroxy-10-[[[(2R)-1-methyl-2-pyrrolidinyl]carbonyl]amino]-4-oxo-] | 10 to 100 |
| CN1CCC[C@H]1C(=O)NC12CCC(CC1)Cn1c2nc(C(=O)NCc2ccc(F)cc2)c(O)c1=O [Example 258, 7,10-Ethanopyrimido[1,2-a]azepine-2-carboxamide, N-[(4-fluorophenyl)methyl]-4,6,7,8,9,10-hexahydro-3-hydroxy-10-[[[(2S)-1-methyl-2-pyrrolidinyl]carbonyl]amino]-4-oxo-] | 10 to 100 |
| COCCOC(=O)NC12CCC(CC1)Cn1c2nc(C(=O)NCc2ccc(F)cc2)c(O)c1=O [Example 259, Carbamic acid, [2-[[[(4-fluorophenyl)methyl]amino-0]carbonyl]-6,7,8,9-tetrahydro-3-hydroxy-4-oxo-7,10-ethanopyrimido[1,2-a]azepin-10(4H)-yl]-, 2-methoxyethyl ester] | < 10 |
| O=C(NC12CCC(CC1)Cn1c2nc(C(=O)NCc2ccc(F)cc2)c(O)c1=O)OCCO [Example 260, Carbamic acid, [2-[[[(4-fluorophenyl)methyl]amino]carbonyl]-6,7,8,9-tetrahydro-3-hydroxy-4-oxo-7,10-ethanopyrimido[1,2-a]azepin-10(4H)-yl]-, 2-hydroxyethyl ester] | < 10 |
| CC(C)(O)C(=O)NC12CCC(CC1)Cn1c2nc(C(=O)NCc2ccc(F)cc2)c(O)c1=O [Example 261, 7,10-Ethanopyrimido[1,2-a]azepine-2-carboxamide, N-[(4-fluorophenyl)methyl]-4,6,7,8,9,10-hexahydro-3-hydroxy-10-[(2-hydroxy-2-methyl-1-oxopropyl)amino]-4-oxo-] | < 10 |
| CC(=O)N1CCC[C@H]1C(=O)NC12CCC(CC1)Cn1c2nc(C(=O)NCc2ccc(F)c(C)c2)c(O)c1=O [Example 262, 7,10-Ethanopyrimido[1,2-a]azepine-2-carboxamide, 10-[[[(2S)-1-acetyl-2-pyrrolidinyl]carbonyl]amino]-N-[(4-fluoro-3-methylphenyl)methyl]-4,6,7,8,9,10-hexahydro-3-hydroxy-4-oxo-] | < 10 |
| Cc1cc(CNC(=O)c2nc3n(c(=O)c2O)CC2CCC3(NC(=O)[C@@H]3CCCN3S(C)(=O)=O)CC2)ccc1F [Example 263, 7,10-Ethanopyrimido[1,2-a]azepine-2-carboxamide, N-[(4-fluoro-3-methylphenyl)methyl]-4,6,7,8,9,10-hexahydro-3-hydroxy-10-[[[(2S)-1-(methylsulfonyl)-2-pyrrolidinyl]carbonyl]amino]-4-oxo-] | < 10 |
| O=C1C[C@@H](C(=O)NC23CCC(CC2)Cn2c3nc(C(=O)NCc3ccc(F)cc3)c(O)c2=O)N1 [Example 264, 7,10-Ethanopyrimido[1,2-a]azepine-2-carboxamide, N-[(4-fluorophenyl)methyl]-4,6,7,8,9,10-hexahydro-3-hydroxy-4-oxo-10-[[[(2S)-4-oxo-2-azetidinyl]carbonyl]amino]-] | < 10 |
| CC(=O)N1CCCC[C@H]1C(=O)NC12CCC(CC1)Cn1c2nc(C(=O)NCc2ccc(F)cc2)c(O)c1=O [Example 265, 7,10-Ethanopyrimido[1,2-a]azepine-2-carboxamide, 10-[[[(2S)-1-acetyl-2-piperidinyl]carbonyl]amino]-N-[(4-fluorophenyl)methyl]-4,6,7,8,9,10-hexahydro-3-hydroxy-4-oxo-] | < 10 |
| CS(=O)(=O)N1CCCC[C@H]1C(=O)NC12CCC(CC1)Cn1c2nc(C(=O)NCc2ccc(F)cc2)c(O)c1=O [Example 266, 7,10-Ethanopyrimido[1,2-a]azepine-2-carboxamide, N-[(4-fluorophenyl)methyl]-4,6,7,8,9,10-hexahydro-3-hydroxy-10-[[[(2S)-1-(methylsulfonyl)-2-piperidinyl]carbonyl]amino]-4-oxo-] | < 10 |
| CC(=O)N1CC[C@H]1C(=O)NC12CCC(CC1)Cn1c2nc(C(=O)NCc2ccc(F)cc2)c(O)c1=O [Example 267, 7,10-Ethanopyrimido[1,2-a]azepine-2-carboxamide, 10-[[[(2S)-1-acetyl-2-azetidinyl]carbonyl]amino]-N-[(4-fluorophenyl)methyl]-4,6,7,8,9,10-hexahydro-3-hydroxy-4-oxo-] | < 10 |
| CS(=O)(=O)N1CC[C@H]1C(=O)NC12CCC(CC1)Cn1c2nc(C(=O)NCc2ccc(F)cc2)c(O)c1=O [Example 268, 7,10-Ethanopyrimido[1,2-a]azepine-2-carboxamide, N-[(4-fluorophenyl)methyl]-4,6,7,8,9,10-hexahydro-3-hydroxy-10-[[[(2S)-1-(methylsulfonyl)-2-azetidinyl]carbonyl]amino]-4-oxo-] | < 10 |
| CN(C)C(=O)C(=O)N1CCC[C@H]1C(=O)NC12CCC(CC1)Cn1c2nc(C(=O)NCc2ccc(F)cc2)c(O)c1=O [Example 269, 7,10-Ethanopyrimido[1,2-a]azepine-2-carboxamide, 10-[[[(2S)-1-[2-(dimethylamino)-1,2-dioxoethyl]-2-pyrrolidinyl]carbonyl]amino]-N-[(4-fluorophenyl)methyl]-4,6,7,8,9,10-hexahydro-3-hydroxy-4-oxo-] | < 10 |
